The text below walks through data of PMC6269876, “Pancreatic Lipase Inhibitory Gallotannins from Galla Rhois with Inhibitory Effects on Adipocyte Differentiation in 3T3-L1 Cells” (Molecules, 2013).

The target in experiment [1] is T1, porcine pancreatic lipase (Sus scrofa, UniProt P00591).
T1 construct: purchased Sigma, St. Louis, MO, USA
T1 sequence (P00591 1-450): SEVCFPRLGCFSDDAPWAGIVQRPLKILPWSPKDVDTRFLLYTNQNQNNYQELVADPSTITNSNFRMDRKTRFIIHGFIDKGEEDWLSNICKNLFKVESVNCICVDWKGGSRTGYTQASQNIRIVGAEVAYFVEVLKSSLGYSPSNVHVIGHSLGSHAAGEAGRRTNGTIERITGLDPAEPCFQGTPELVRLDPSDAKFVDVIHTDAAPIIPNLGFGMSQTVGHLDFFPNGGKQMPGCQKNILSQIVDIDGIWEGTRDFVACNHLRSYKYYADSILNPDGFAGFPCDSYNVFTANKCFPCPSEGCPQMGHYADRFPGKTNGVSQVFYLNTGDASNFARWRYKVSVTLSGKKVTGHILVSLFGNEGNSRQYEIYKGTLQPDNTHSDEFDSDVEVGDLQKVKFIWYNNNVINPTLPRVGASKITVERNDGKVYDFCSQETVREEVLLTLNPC
Put plainly: Pancreatic lipase activity assay (p-nitrophenylbutyrate hydrolysis). In kind it is biochemical. The note with it: for IC50: mean ± SD of three replicates, regression analysis, read-out: Pancreatic lipase inhibitory activity IC50. The procedure:
A previously reported method, with a minor modification, was used for evaluation of the ability of the compounds to inhibit porcine pancreatic lipase. Briefly, an enzyme buffer was prepared by addition of 30 μL (10 units) of a solution of porcine pancreatic lipase (Sigma, St. Louis, MO, USA) in 10 mM morpholinepropanesulphonic acid (MOPS) and 1 mM EDTA (pH 6.8) to 850 μL of Tris buffer (100 mM Tris-HC1 and 5 mM CaCl2, pH 7.0). […] Inhibition of lipase activity was expressed as the percentage decrease in the optical density (OD) when porcine pancreatic lipase was incubated with the test compounds.

Another experiment deals with 3T3-L1 cells. Put plainly: Assay of adipocyte differentiation in 3T3-L1 cells (Oil Red O staining). In kind it is cell-based. The note with it: Mus musculus, 3T3-L1, 50 μM, treated throughout the differentiation period; read-out: Inhibition of lipid deposition (lipid accumulation). As for the experimental part:
Of particular interest, a certain degree of galloylation on the glucose moiety of these active molecules appears to be required for potent inhibitory activity. […] The non-toxic concentrations of the tested compounds were established in 3T3-L1 preadipocytes using concentrations of 50, 25, and 10 μM. After two days of incubation, an MTT assay was performed for measurement of cell viability; according to the results, no cytotoxic effect was detectable for any of the tested compounds in concentrations up to 50 μM. […] 3T3-L1 mouse embryo fibroblasts were cultured in DMEM supplemented with 10% FBS until reaching confluence. Two days after reaching confluence (day 0), to initiated differentiation, cells were stimulated with differentiation medium containing DMEM with 10% FBS, 0.5 mM 3-isobutyl-1-methylxanthine, 1 μM insulin and 1 μM dexamethasone for two days (day 2). […] All media contained 100 IU/mL penicillin and 100 μg/mL streptomycin. Cells were maintained at 37 °C in a humidified atmosphere of 95% air-5% CO2. Throughout the culture period (days 0–8), the cultures were treated with test samples for general experiments, with a slight modification. […] For quantitative analysis, Oil Red O staining was dissolved with isopropyl alcohol and optical density was measured at 500 nm using an ELISA plate reader.

By IC50 is commonly meant the concentration at which inhibition is half-maximal. As to `C[C@H]1O[C@H](C)[C@@H](O)C2=C1C(=O)c1c(O)cc(O)c(-c3c4c(c(O)c5c(O[C@@H]6O[C@H](CO)[C@@H](O)[C@H](O)[C@H]6O)cc(O)cc35)[C@@H](C)O[C@H](C)[C@H]4O)c1C2=O` [Compound 1, protoaphin-fb], the IC50 in experiment [1] stood at 30.6 ± 2.4 µM.

As a reminder, the inhibition is the share of the control response that was lost under treatment. Take `O=C(OC[C@H]1O[C@@H](OC(=O)c2cc(O)c(O)c(O)c2)[C@H](OC(=O)c2cc(O)c(O)c(OC(=O)c3cc(O)c(O)c(O)c3)c2)[C@@H](OC(=O)c2cc(O)c(O)c(O)c2)[C@@H]1OC(=O)c1cc(O)c(O)c(O)c1)c1cc(O)c(O)c(O)c1` [Compound 2, 2-O-digalloyl-1,3,4,6-tetra-O-galloyl-β-D-glucose]: in experiment [1], the IC50 worked out at 3.5 ± 0.5 µM. Also, the inhibition at 50 µM in the experiment on 3T3-L1 cells came out at 64%. For `O=C(OC[C@H]1O[C@@H](OC(=O)c2cc(O)c(O)c(O)c2)[C@H](OC(=O)c2cc(O)c(O)c(O)c2)[C@@H](OC(=O)c2cc(O)c(O)c(O)c2)[C@@H]1OC(=O)c1cc(O)c(O)c(O)c1)c1cc(O)c(O)c(O)c1` [Compound 3, 1,2,3,4,6-penta-O-galloyl-β-D-glucose], in experiment [1], the IC50 worked out at 15.9 ± 1 µM. For the compound `O=C(OC[C@H]1O[C@@H](OC(=O)c2cc(O)c(O)c(O)c2)[C@H](OC(=O)c2cc(O)c(O)c(O)c2)[C@@H](O)[C@@H]1OC(=O)c1cc(O)c(O)c(O)c1)c1cc(O)c(O)c(O)c1` [Compound 4, 1,2,4,6-tetra-O-galloyl-β-D-glucose], in experiment [1], the IC50 turned out to be 23.2 ± 1.8 µM. For the compound `COC(=O)c1cc(O)c(O)c(O)c1` [Compound 6, methylgallate], in experiment [1], the “Pancreatic lipase inhibition, result in words” value is “inactive” and the IC50 was over 300 µM. Take `O=C(O)c1cc(O)c(O)c(O)c1` [Compound 7, gallic acid]: in experiment [1], the “Pancreatic lipase inhibition, result in words” value was “inactive” and the IC50 is over 300 µM.
